Where a name gives a salt, the structure may show the parent alone.
Molecular target: T1, human CGT (ceramide galactosyltransferase), CHO/CGT lysate (Homo sapiens, UniProt Q16880)
T1 construct: Full-length human CGT cDNA was cloned into the BamH1/Xho1 site of pcDNA3.1 (+); expressed in transfected cells; host or cells: Chinese hamster ovary (CHO) cells; lysate prepared with M-PER
T1 sequence (Q16880 21-541): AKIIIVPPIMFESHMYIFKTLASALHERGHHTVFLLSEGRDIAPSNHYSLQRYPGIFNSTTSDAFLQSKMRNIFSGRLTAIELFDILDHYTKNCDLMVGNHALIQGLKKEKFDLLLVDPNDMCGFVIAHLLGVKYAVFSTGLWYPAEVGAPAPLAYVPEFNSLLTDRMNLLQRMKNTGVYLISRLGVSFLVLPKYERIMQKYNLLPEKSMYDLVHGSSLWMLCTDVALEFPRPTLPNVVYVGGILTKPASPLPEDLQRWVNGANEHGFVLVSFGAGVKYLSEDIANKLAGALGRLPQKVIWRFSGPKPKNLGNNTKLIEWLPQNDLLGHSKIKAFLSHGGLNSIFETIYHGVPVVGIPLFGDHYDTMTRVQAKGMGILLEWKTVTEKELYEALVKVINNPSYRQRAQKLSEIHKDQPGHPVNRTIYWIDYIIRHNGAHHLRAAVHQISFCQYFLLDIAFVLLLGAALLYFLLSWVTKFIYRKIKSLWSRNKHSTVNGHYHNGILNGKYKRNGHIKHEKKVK
Experiment: CGT enzyme assay, RapidFire/MS/MS readout with 0.01% Tween added (Table 1 ranges with two asterisks **)
Assay type: biochemical
Conditions: CGT enzymatic assay; range with two asterisks (**): RapidFire/MS/MS method with 0.01% Tween added
Method in brief: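 Lysate (4 μg) of CHO cells transfected with full-length human CGT incubated 1 h at 37 °C with compound (0.001–50 μM) in pH 7.2 HEPES buffer with 10 μM C6-NBD-dihydro-ceramide, 17.5 μM UDP-galactose, Mg2+/Mn2+, CHAPS, BSA, 0.5% DMSO; ** set also contained 0.01% Tween 80. Product quantified by RapidFire/MS/MS, normalized to internal standard; IC50 from sigmoidal variable-slope fits.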

Compound	IC50
NC1CCN(C(=O)[C@H](NS(=O)(=O)c2ccc(OCC3CCCCC3)cc2)C(F)(F)c2ccc3c(c2)oc2cc(Cl)ccc23)CC1 [Compound 198-2, (S)-N-(3-(4-aminopiperidin-1-yl)-1-(7-chlorodibenzo[b,d]furan-3-yl)-1,1-difluoro-3-oxopropan-2-yl)-4-(cyclohexylmethoxy)benzenesulfonamide]	30 to 100 µM
NC(=O)C1CCN(C(=O)[C@H](NS(=O)(=O)c2ccc3cc(OC4CCCC4)ccc3c2)C(F)(F)c2ccc(-c3ccc(Cl)cc3)cc2)CC1 [Compound 173-2, (S)-1-(3-(4′-chloro-[1,1′-biphenyl]-4-yl)-2-((6-(cyclopentyloxy)naphthalene)-2-sulfonamido)-3,3-difluoropropanoyl)piperidine-4-carboxamide]	30 to 100 µM
CCOc1cc(-c2ccc(C(F)(F)[C@H](NS(=O)(=O)c3ccc(OCC4CCCCC4)cc3)C(=O)N3CCC(N)CC3)cc2)ccc1Cl [Compound 153-1, (R)—N-(3-(4-aminopiperidin-1-yl)-1-(4′-chloro-3′-ethoxy-[1,1′-biphenyl]-4-yl)-1,1-difluoro-3-oxopropan-2-yl)-4-(cyclohexylmethoxy)benzenesulfonamide trifluoroacetate]	1 to 10 µM
NC1C2CCC1CN(C(=O)[C@H](NS(=O)(=O)c1ccc(OCC3CCCCC3)cc1)C(F)(F)c1ccc(-c3ccc(Cl)cc3)cc1)C2 (stereo partly drawn) [Compound 183-2, N-((S)-3-((1R,5S,8S)-8-amino-3-azabicyclo[3.2.1]octan-3-yl)-1-(4′-chloro-[1,1′-biphenyl]-4-yl)-1,1-difluoro-3-oxopropan-2-yl)-4-(cyclohexylmethoxy)benzenesulfonamide]	1 to 10 µM
O=C([C@@H](NS(=O)(=O)c1ccc2cc(OC3CCCC3)ccc2c1)C(F)(F)c1ccc(-c2ccc(Cl)cc2)cc1)N1CC[C@@H]2CNC[C@@H]21 [Compound 192-3, N-((R)-1-(4′-chloro-[1,1′-biphenyl]-4-yl)-1,1-difluoro-3-((3aR,6aR)-hexahydropyrrolo[3,4-b]pyrrol-1(2H)-yl)-3-oxopropan-2-yl)-6-(cyclopentyloxy)naphthalene-2-sulfonamide]	< 1 µM
NC1CCN(C(=O)[C@H](NS(=O)(=O)c2cc3ccc(OC4CCCC4)cc3s2)C(F)(F)c2ccc(-c3ccc(Cl)cc3)cc2)CC1 [Compound 164-2, (S)—N-(3-(4-aminopiperidin-1-yl)-1-(4′-chloro-[1,1′-biphenyl]-4-yl)-1,1-difluoro-3-oxopropan-2-yl)-6-(cyclopentyloxy)benzo[b]thiophene-2-sulfonamide]	1 to 10 µM
NC1CCN(C(=O)[C@H](NS(=O)(=O)c2ccc(CCOC3CCCC3)cc2)C(F)(F)c2ccc(-c3ccc(Cl)cc3)cc2)CC1 [Compound 185-2, (S)-N-(3-(4-aminopiperidin-1-yl)-1-(4′-chloro-[1,1′-biphenyl]-4-yl)-1,1-difluoro-3-oxopropan-2-yl)-4-(2-(cyclopentyloxy)ethyl)benzenesulfonamide]	30 to 100 µM
N[C@H]1CCN(C(=O)[C@@H](NS(=O)(=O)c2ccc(OCC3CCCCC3)cc2)C(F)(F)c2ccc(Cl)cc2)C1 [Compound 186-1, N-((R)-3-((S)-3-aminopyrrolidin-1-yl)-1-(4-chlorophenyl)-1,1-difluoro-3-oxopropan-2-yl)-4-(cyclohexylmethoxy)benzenesulfonamide]	1 to 10 µM
O=C([C@H](NS(=O)(=O)c1ccc2cc(OC3CCCC3)ccc2c1)C(F)(F)c1ccc(-c2ccc(Cl)cc2)cc1)N1CCC12CNC2 [Compound 191-2, (S)-N-(1-(4′-chloro-[1,1′-biphenyl]-4-yl)-1,1-difluoro-3-oxo-3-(1,6-diazaspiro[3.3]heptan-1-yl)propan-2-yl)-6-(cyclopentyloxy)naphthalene-2-sulfonamide]	1 to 10 µM
NC1CC2CCC(C1)N2C(=O)[C@H](NC(=O)C(=O)c1ccc2cc(OC3CCCC3)ccc2c1)C(F)(F)c1ccc2cc(Br)ccc2c1 (stereo partly drawn) [Compound 160-2, N-((2S)-3-(3-amino-8-azabicyclo[3.2.1]octan-8-yl)-1-(6-bromonaphthalen-2-yl)-1,1-difluoro-3-oxopropan-2-yl)-2-(6-(cyclopentyloxy)naphthalen-2-yl)-2-oxoacetamide trifluoroacetate]	30 to 100 µM
N[C@@H]1CCN(C(=O)[C@H](NS(=O)(=O)c2ccc3cc(OC4CCCC4)ccc3c2)C(F)(F)c2ccc(-c3ccc(Cl)cc3)cc2)C1 [Compound 149-2, N—((S)-3-((R)-3-aminopyrrolidin-1-yl)-1-(4′-chloro-[1,1′-biphenyl]-4-yl)-1,1-difluoro-3-oxopropan-2-yl)-6-(cyclopentyloxy) naphthalene-2-sulfonamide trifluoroacetate]	1 to 10 µM
CN(CCCN)C(=O)[C@H](NS(=O)(=O)c1ccc2cc(OC3CCCC3)ccc2c1)C(F)(F)c1ccc(-c2ccc(Cl)cc2)cc1 [Compound 157-2, (S)—N-(3-aminopropyl)-3-(4′-chloro-[1,1′-biphenyl]-4-yl)-2-((6-(cyclopentyloxy)naphthalene)-2-sulfonamido)-3,3-difluoro-N-methyl propanamide]	30 to 100 µM
O=C([C@@H](NS(=O)(=O)c1ccc(OCC2CCCCC2)cc1)C(F)(F)c1ccc(-c2ccc(Cl)cc2)cc1)N1CC[C@@H]2CNC[C@@H]21 [Compound 195-3, N-((R)-1-(4′-chloro-[1,1′-biphenyl]-4-yl)-1,1-difluoro-3-((3aR,6aR)-hexahydropyrrolo[3,4-b]pyrrol-1(2H)-yl)-3-oxopropan-2-yl)-4-(cyclohexylmethoxy)benzenesulfonamide]	1 to 10 µM
NC1CCN(C(=O)[C@H](NC(=O)[C@@H](O)c2ccc3cc(OC4CCCC4)ccc3c2)C(F)(F)c2ccc(-c3ccc(Cl)cc3)cc2)CC1 [Compound 159-2, (S)—N—((S)-3-(4-aminopiperidin-1-yl)-1-(4′-chloro-[1,1′-biphenyl]-4-yl)-1,1-difluoro-3-oxopropan-2-yl)-2-(6-(cyclopentyloxy)naphthalen-2-yl)-2-hydroxyacetamide trifluoroacetate]	30 to 100 µM
C=C(c1ccc(C(F)(F)[C@@H](NS(=O)(=O)c2ccc(OCC3CCCCC3)cc2)C(=O)N2CCC(N)CC2)cc1)C(F)(F)F [Compound 193-2, (S)-N-(3-(4-aminopiperidin-1-yl)-1,1-difluoro-3-oxo-1-(4-(3,3,3-trifluoroprop-1-en-2-yl)phenyl)propan-2-yl)-4-(cyclohexylmethoxy)benzenesulfonamide]	30 to 100 µM
NC1CCN(C(=O)[C@@H](NS(=O)(=O)c2ccc(OCC3CCCCC3)cc2)C(F)(F)c2ccc(C3(C(F)(F)F)CC3)cc2)CC1 [Compound 196-1, (R)-N-(3-(4-aminopiperidin-1-yl)-1,1-difluoro-3-oxo-1-(4-(1-(trifluoromethyl)cyclopropyl)phenyl)propan-2-yl)-4-(cyclohexylmethoxy)benzenesulfonamide]	1 to 10 µM
O=C([C@H](NS(=O)(=O)c1ccc2cc(OC3CCCC3)ccc2c1)C(F)(F)c1ccc(-c2ccc(Cl)cc2)cc1)N1CC[C@H]2CNC[C@H]21 [Compound 192-4, N-((S)-1-(4′-chloro-[1,1′-biphenyl]-4-yl)-1,1-difluoro-3-((3aS,6aS)-hexahydropyrrolo[3,4-b]pyrrol-1(2H)-yl)-3-oxopropan-2-yl)-6-(cyclopentyloxy)naphthalene-2-sulfonamide]	30 to 100 µM
NC1CCN(C(=O)[C@@H](N(CC(F)(F)F)S(=O)(=O)c2ccc3cc(OC4CCCC4)ccc3c2)C(F)(F)c2ccc(Br)cc2)CC1 [Compound 187-1, (R)-N-(3-(4-aminopiperidin-1-yl)-1-(4-bromophenyl)-1,1-difluoro-3-oxopropan-2-yl)-6-(cyclopentyloxy)-N-(2,2,2-trifluoroethyl)naphthalene-2-sulfonamide]	30 to 100 µM
COc1cc(C(F)(F)[C@H](NS(=O)(=O)c2ccc(OCC3CCCCC3)cc2)C(=O)N2CCC(N)CC2)ccc1-c1ccc(Cl)cc1 [Compound 146-1, (R)—N-(3-(4-aminopiperidin-1-yl)-1-(4′-chloro-2-methoxy-[1,1′-biphenyl]-4-yl)-1,1-difluoro-3-oxopropan-2-yl)-4-(cyclohexylmethoxy) benzenesulfonamide trifluoroacetate]	< 1 µM
NC1CCN(C(=O)[C@H](NS(=O)(=O)c2ccc3cc(OC4CCCC4)ccc3c2)C(F)(F)c2ccc(C3(C(F)(F)F)CC3)cc2)CC1 [Compound 182-2, (S)—N-(3-(4-aminopiperidin-1-yl)-1,1-difluoro-3-oxo-1-(4-(1-(trifluoromethyl)cyclopropyl)phenyl)propan-2-yl)-6-(cyclopentyloxy) naphthalene-2-sulfonamide trifluoroacetate]	10 to 30 µM

Same assay, conditions: CGT enzyme assay, RapidFire/MS/MS method with 0.01% Tween added (range with two asterisks **)

Compound	IC50
COc1cc(C(F)(F)[C@H](NS(=O)(=O)c2ccc3cc(OC4CCCC4)ccc3c2)C(=O)N2CCC(N)CC2)ccc1Br [Compound 143-1, (R)—N-(3-(4-aminopiperidin-1-yl)-1-(4-bromo-3-methoxyphenyl)-1,1-difluoro-3-oxopropan-2-yl)-6-(cyclopentyloxy)naphthalene-2-sulfonamide trifluoroacetate]	1 to 10 µM
